Data taken from patent publication US20110230476A1, “PI3 KINASE INHIBITORS AND USES THEREOF” (AVILA THERAPEUTICS, INC., priority 2009, published 2011).
Entries after “also recorded” stand apart in the source; their conditions may differ.

How the values were obtained:
Phospho-Akt(Ser473) [1] = experiment: Dose response in SKOV3 cells as determined by in-cell Western; format: cell-based; conditions: Homo sapiens, SK-OV-3
How it was run: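 SKOV3 cells treated with compound for 1 hr, then formaldehyde-fixed, permeabilised and stained overnight for phospho-Akt(Ser473) with anti-tubulin as a reference. Infrared secondary antibodies read at 680 and 800 nm channels by in-cell Western imaging.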

PI3 kinase = experiment: Comparison of covalent and non-covalent inhibitors (Tables 18 and 19): prolonged PD, mechanism; conditions: Table 19
Description: “A” designates ≦10 nM; “B” designates 10-100 nM; and “C” designates 100-1000 nM

Phospho-Akt(Ser473) [2] = experiment: Dose response in SKOV3 cells as determined by Western blot; format: cell-based; conditions: Homo sapiens, SK-OV-3, 1 hr, Phospho-Akt normalized to total Akt, read-out: Immunoblot
How it was run: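 SKOV3 cells in DMEM/10% FBS were treated with compound in 0.1% DMSO for 1 hr, then lysed. 50 ug protein was immunoblotted for Phospho-Akt(Ser473) and total Akt with fluorescent read-out. Phospho-Akt was normalized to total Akt and expressed as percent of untreated signal.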

PI3Kα = PI3Kα (Homo sapiens, UniProt P42336); experiment: Mass spectrometry of intact PI3Kα (Millipore, 14-602), 1 hr incubation; format: binding; set-up: purchased Millipore 14-602; conditions: 10× fold excess of compound, MALDI
Description: Mass Spectrometry for PI3K
Aliquots (5 μl) of the samples were diluted with 15 μl of 0.2% TFA prior to micro C4 ZipTipping directly onto the MALDI target using Sinapinic acid as the desorption matrix (10 mg/ml in 0.1% TFA:Acetonitrile 50:50).

PI3Kβ (p110β/p85α) = target: T1, PI3Kβ (p110β/p85α) (Homo sapiens, UniProt P42338); experiment: HTRF assay, potency against active PI3Kβ; format: biochemical; conditions: [ATP]=50 μM, [di-C8-PIP2]=10 μM, 30 min pre-incubation, read-out: PI3Kβ Inhibition
T1 construct: purchased BPS Bioscience (San Diego, Calif.) or Millipore (Billerica, Mass.)
How it was run: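 IC50 came from a variable-slope fit of % inhibition, calculated from the HTRF emission ratio relative to wells with and without enzyme. Reactions with the active enzyme complex ran 30-60 minutes at 25 °C after ATP addition before stop and detection reagents.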

SKOV-3 tumors = experiment: Tumor growth inhibition in vivo; conditions: nude mice, subcutaneous SKOV-3 tumors; GDC-941 orally, II-a-3 I.P., 50-100 mg/Kg/QD, 21 days
Description: Tumor Growth Inhibition In Vivo
The in vivo experiment was performed at Piedmont Research Center (Research Triangle Park, N.C.). Nude mice were implanted with SKOV-3 tumors subcutaneously. […] Dosing continued for 21 days. Tumor volume was measured twice a week.

[3] = SKOV3 cells, 1 hr, read-out: pAKT Inhibition in cell Western

T1 sequence (P42338 whole entry): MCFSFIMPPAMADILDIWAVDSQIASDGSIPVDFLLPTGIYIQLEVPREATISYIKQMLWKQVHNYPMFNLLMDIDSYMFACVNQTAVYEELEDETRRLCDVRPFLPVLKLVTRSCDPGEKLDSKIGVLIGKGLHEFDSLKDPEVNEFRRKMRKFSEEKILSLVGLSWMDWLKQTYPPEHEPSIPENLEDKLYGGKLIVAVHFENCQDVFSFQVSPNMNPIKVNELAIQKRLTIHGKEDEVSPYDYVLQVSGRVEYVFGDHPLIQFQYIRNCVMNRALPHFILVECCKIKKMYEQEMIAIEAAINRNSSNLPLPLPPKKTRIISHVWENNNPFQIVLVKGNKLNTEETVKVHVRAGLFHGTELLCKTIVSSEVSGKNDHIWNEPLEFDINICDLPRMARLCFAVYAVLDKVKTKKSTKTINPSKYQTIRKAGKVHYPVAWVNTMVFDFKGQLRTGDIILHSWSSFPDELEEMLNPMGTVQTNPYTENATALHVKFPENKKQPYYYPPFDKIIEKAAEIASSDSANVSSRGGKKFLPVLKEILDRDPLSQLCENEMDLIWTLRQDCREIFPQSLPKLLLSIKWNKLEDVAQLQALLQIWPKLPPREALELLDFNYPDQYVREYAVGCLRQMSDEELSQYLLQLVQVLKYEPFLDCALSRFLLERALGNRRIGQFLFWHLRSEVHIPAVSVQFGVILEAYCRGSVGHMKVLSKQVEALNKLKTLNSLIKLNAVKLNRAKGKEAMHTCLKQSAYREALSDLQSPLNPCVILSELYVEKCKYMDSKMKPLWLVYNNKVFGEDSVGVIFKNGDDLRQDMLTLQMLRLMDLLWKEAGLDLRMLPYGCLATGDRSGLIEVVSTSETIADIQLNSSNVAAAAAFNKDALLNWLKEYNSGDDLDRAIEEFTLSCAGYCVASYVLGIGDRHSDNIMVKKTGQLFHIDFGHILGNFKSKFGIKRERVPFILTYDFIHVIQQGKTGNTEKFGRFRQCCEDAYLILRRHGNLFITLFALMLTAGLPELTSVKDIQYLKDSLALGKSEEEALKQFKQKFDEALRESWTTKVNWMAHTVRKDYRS
T1 sequence (P27986 whole entry partner): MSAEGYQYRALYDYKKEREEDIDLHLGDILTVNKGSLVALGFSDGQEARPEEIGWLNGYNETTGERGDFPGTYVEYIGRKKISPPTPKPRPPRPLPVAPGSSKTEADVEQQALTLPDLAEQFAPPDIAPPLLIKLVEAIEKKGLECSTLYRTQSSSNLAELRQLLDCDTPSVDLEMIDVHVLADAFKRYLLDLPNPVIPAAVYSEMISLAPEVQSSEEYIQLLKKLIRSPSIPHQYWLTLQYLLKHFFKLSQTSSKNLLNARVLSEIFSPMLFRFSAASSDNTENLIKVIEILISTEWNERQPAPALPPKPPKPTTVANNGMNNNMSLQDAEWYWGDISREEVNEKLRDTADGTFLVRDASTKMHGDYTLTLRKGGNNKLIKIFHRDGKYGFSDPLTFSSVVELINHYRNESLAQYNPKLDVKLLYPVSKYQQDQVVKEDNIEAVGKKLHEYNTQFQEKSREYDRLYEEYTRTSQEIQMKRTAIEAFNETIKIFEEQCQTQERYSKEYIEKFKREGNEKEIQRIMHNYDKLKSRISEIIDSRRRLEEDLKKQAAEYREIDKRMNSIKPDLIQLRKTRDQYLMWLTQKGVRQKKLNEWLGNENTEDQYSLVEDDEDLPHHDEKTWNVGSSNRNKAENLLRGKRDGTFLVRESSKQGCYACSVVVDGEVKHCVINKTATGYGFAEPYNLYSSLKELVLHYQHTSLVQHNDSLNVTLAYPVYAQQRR
PI3Kα, sequence (P42336 whole entry): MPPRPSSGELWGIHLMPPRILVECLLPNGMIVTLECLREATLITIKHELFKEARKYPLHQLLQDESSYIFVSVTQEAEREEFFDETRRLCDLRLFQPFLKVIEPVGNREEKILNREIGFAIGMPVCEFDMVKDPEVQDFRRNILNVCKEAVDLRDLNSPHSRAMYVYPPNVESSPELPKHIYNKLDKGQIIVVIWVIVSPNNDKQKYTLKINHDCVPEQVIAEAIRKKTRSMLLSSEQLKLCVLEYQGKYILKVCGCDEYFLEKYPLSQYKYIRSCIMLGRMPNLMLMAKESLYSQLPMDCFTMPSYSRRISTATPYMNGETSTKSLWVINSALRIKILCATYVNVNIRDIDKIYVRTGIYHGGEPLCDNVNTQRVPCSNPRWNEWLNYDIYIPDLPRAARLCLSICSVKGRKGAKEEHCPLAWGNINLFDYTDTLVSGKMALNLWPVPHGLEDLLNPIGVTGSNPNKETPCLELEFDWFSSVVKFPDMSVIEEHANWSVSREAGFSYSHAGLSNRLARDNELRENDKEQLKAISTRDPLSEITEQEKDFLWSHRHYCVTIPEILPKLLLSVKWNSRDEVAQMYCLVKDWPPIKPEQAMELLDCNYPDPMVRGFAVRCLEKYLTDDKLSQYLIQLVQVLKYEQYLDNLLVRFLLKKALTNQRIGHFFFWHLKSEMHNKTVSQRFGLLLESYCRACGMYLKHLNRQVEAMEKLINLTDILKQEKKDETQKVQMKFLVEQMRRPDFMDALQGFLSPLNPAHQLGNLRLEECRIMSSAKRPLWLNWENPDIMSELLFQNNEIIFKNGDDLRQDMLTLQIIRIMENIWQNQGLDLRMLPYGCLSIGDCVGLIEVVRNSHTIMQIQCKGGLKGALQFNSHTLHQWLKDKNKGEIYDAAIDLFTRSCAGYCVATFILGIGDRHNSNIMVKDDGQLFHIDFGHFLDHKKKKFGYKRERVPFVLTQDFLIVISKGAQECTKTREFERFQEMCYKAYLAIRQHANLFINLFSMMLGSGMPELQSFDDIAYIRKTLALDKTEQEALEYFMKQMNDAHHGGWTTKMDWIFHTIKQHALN
PI3Kα, sequence (P27986 whole entry partner): as the sequence (P27986 whole entry partner) above

Row | Compound | EC50 (Phospho-Akt(Ser473) [1]; [3]) [nM] | EC50 (Phospho-Akt(Ser473) [1]; Table 19, assay not given, classes agree with Table 23, read-out: EC50 pAkt^Ser473) [nM] | Prolonged PD (PI3 kinase) | EC50 (Phospho-Akt(Ser473) [2]) [nM] | covalent modification of PI3Kα (PI3Kα) | IC50 (PI3Kβ (p110β/p85α)) [nM] | tumor growth (SKOV-3 tumors)
1 | CC(C)=CC(=O)CCC(=O)N1CCN(Cc2cc3nc(-c4cccc5[nH]ncc45)nc(N4CCOCC4)c3s2)CC1 [II-a-3, 1-(4-((2-(1H-indazol-4-yl)-4-morpholinothieno[3,2-d]pyrimidin-6-yl)methyl)piperazin-1-yl)-6-methylhept-5-ene-1,4-dione] | ≤ 10 | ≤ 10 | Yes | 10 to 100 | complete modification; also recorded: covalent modification | > 1000 | Inhibition of tumor growth
2 | C/C=C/C(=O)CCC(=O)N1CCN(Cc2cc3nc(-c4cccc5[nH]ncc45)nc(N4CCOCC4)c3s2)CC1 [II-a-36, (E)-1-(4-((2-(1H-indazol-4-yl)-4-morpholinothieno[3,2-d]pyrimidin-6-yl)methyl)piperazin-1-yl)hept-5-ene-1,4-dione] | 100 to 1000 |  |  | 10 to 100 |  | > 1000 | 
